# Laboratory results published in US5866556A, “Pyridinylbisphosphonates for use as a therapeutical agent” (Leiras Oy, priority 1994, dated 1999).
# Read-outs that look alike come from different tables or passages of the source.
# Key:
# [1] = Pharmacokinetics: serum AUC and bioavailability from serum concentration data; assay type: in vivo; conditions: rat; for AUC(0-inf): single dose 114 mg/kg, read-out: AUC0->.infin.
# Protocol: (§1) Pharmacokinetics of the compound [(2-pyridinylamino)methylidene]bisphosphonic acid tetraethylester was studied in rats. Minor amounts of an intravenous dose was excreted as a parent compound during 24 hours into urine supporting extensive metabolism as well. About half of the oral dose of the said compound was absorbed in rats.
# (§2) Bioavailability was determined from the total amount of compound excreted into urine during 24 hours or from the serum concentration data at different time points after oral administration and intravenous administration. The urine and serum samples were analyzed for the test compound I with high pressure liquid chromatographic methods. […] Bioavailability of compound I assessed by serum concentration data was 44%.
# [2] = tested on: immobilization induced osteoporosis (femur bone area); assay: Effect on immobilization induced osteoporosis (sciatic nerve section) in rats; assay type: in vivo, Sprague-Dawley rat; conditions: for Immobilized leg, femur total bone area: mean (SE), control 5.3 (0.6); for Femoral bone area in the immobilized leg / bone loss prevention (in words): sciatic nerve section
# Protocol: Male Sprague-Dawley rats weighing 200±25 g were randomized by weight into groups and anesthetized with Hypnorm/Mebunat and Temgesic. A dorsolateral incision was made on the right or left hip through which the sciatic nerve was exposed, and a 0.5 cm section excised. The muscle and skin were sutured and the animal returned to its cage. The contralateral leg was left intact. The compound I dissolved in physiological saline was administered by subcutaneous injection daily at different dose levels from two days before the surgery until the day of 20 postneurectomy. Control animals received physiological saline. Animals double-labeled with fluorochrome at standardized time points were sacrificed at 21 days postneurectomy and their femora were removed. Femora were embedded in methylmetacrylate, sectioned, and stained. The metphyseal secondary spongiosa and the diaphyseal cortical bone of the femora were subjected to histomorphometric analysis. In control rats, femural total bone area decreased in the immobilized leg.
# [3] = Binding to bone mineral (hydroxyapatite crystals, 14C-clodronate); conditions: for Binding to bone mineral: two hours; for Binding to hydroxyapatite (in words): up to 500 μM, physiological pH, in vitro
# Protocol: (§3) Newborn mice were labeled by a subcutaneous injection of ^45 Ca four days prior to sacrifice. Calvarial bone fragments were microdissected from the parietal bones, preincubated in culture medium with indomethacin, washed and then cultured for three days with and without the compound I. Bone resorption was stimulated by parathyroid hormone (PTH, 10 nM) and an inhibitory effect on this stimulated resorption was measured. […] For the determination of the binding of compound I to bone mineral, ^14 C-disodium clodronte tetrahydrate and hydroxyapatite crystals were incubated at room temperature in barbituric acid buffer at physiological pH in the absence and presence of the compound I in various concentrations. After two hours incubation, the mixture was centrifuged, and the percent of the total specifically bound radioactivity was measured from the supernatant. No binding of the compound I to hydroxyapatite was found at up to 500 μM concentration (Table 3).
# [4] = tested on: spontaneous bone resorption; assay: Effect on spontaneous bone resorption assessed by urinary tetracycline excretion from prelabeled rats; assay type: in vivo, Sprague-Dawley rat; conditions: for Inhibition of tetracycline excretion: n=5, mean (SE); for Inhibition of excretion of radiolabeled tetracycline / spontaneous bone resorption (in words): rats, s.c.
# Protocol: Male Sprague-Dawley rats were used. From the first week of life, the rats were injected subcutaneously with a solution containing 10 μCi/ml of (7-^3 H(N))tetracycline dissolved in physiological saline. The injections were performed twice weekly for 6 weeks. Every animal received a total amount of 20 μCi radiolabeled tetracycline. All animals were given normal diet for growing animals and water ad libitum. One week after the last injection of radiolabeled tetracycline, the rats were weighed and feeding with diet for adult animals was started. At fifth day the rats were randomized into groups and housed in individual metabolic cages. 24-h urine collections were performed for ten days. From the second day [(2-pyridinylamino)methylidene]bisphosphonic acid tetraethylester, compound I, dissolved in physiological saline was injected subcutaneously at different dose levels daily for six days. Control animals received physiological saline. Urine volume was measured and the radioactivity in urine samples was determined by liquid scintillation counting. The data was calculated as the ratio of treated/control at each day for the determination of maximal inhibition of tetracycline excretion.
# Excretion of unmetabolized tetracycline into urine reflects its removal from bone during resorptive processes and thus enables the continual monitoring of bone resorption.
# [5] = tested on: PTH-stimulated bone resorption, mice calvaria; assay: Inhibition of PTH-stimulated resorption of calvarial bone in vitro; assay type: cell-based, mouse; conditions: for Inhibition of bone resorption in vitro, mice calvaria (in words): except at very high, unphysiological concentrations, calcium release
# Protocol: as §3
# [6] = Pharmacokinetics: urinary excretion of parent compound and bioavailability from urine; assay type: in vivo, rat; conditions: for Urinary excretion 0-24 h as parent compound / dose excreted at 24 h: single dose 114 mg/kg; for Urinary excretion 0-24 h as parent compound: 1440 min; for dose excreted at 24 h: urine, read-out: Urinary excretion 0-24 h as parent compound
# Protocol: as §1, §2
# [7] = listed as [(2-pyridinylamino)methylidene]bisphosphonic acid tetraethylester
smiles,measurement,setting,value
"CCOP(=O)(OCC)C(Nc1ccccn1)P(=O)(OCC)OCC [I, [(2-pyridinylamino)methylidene]bisphosphonic acid tetraethylester]",AUC(0-inf),[1]; iv,139000 ng·h/mL
same,bioavailability,"[1]; po, p.o. vs i.v., 114 mg/kg, read-out: Bioavailability F from serum concentration data (AUC)",44%
same,AUC(0-inf),[1]; po,60700 ng·h/mL
same,"Immobilized leg, femur total bone area","[2]; 1 mg/kg s.c. daily, n=4",6.0 (1.3) %
same,"Immobilized leg, femur total bone area","[2]; 75 mg/kg s.c. daily, n=5",24.5 (2.5) %
same,"Immobilized leg, femur total bone area","[2]; 200 mg/kg s.c. daily, n=7",35.5 (1.7) %
same,"Immobilized leg, femur total bone area","[2]; 37,5 mg/kg s.c. daily, n=5",17.3 (2.0) %
same,Mineral apposition rate of cortical bone,"[2]; rats, s.c., data not presented",No deleterious effects
same,Femoral bone area in the immobilized leg / bone loss prevention (in words),"[2]; rats, s.c., listed as [(2-pyridinylamino)methylidene]bisphosphonic acid tetraethylester",effective in preventing bone loss
same,Femoral bone area in the immobilized leg / bone loss prevention (in words),"[2]; rats, s.c., listed as compound I",increased dose-dependently femoral bone area in the immobilized leg
same,Binding to bone mineral,[3]; 5 μmol/l,No binding
same,Binding to bone mineral,[3]; 100 μmol/l,No binding
same,Binding to bone mineral,[3]; 200 μmol/l,No binding
same,Binding to bone mineral,[3]; 500 μmol/l,No binding
same,Binding to hydroxyapatite (in words),[3]; [7],did not show either any binding on hydroxyapatite crystals in vitro
same,Binding to hydroxyapatite (in words),[3]; listed as compound I,No binding
same,Inhibition of tetracycline excretion,[4]; 1 mg/kg s.c. daily for six days,12.2 (6.4) %
same,Inhibition of tetracycline excretion,[4]; 10 mg/kg s.c. daily for six days,19.8 (5.9) %
same,Inhibition of tetracycline excretion,[4]; 100 mg/kg s.c. daily for six days,50.0 (6.1) %
same,Inhibition of tetracycline excretion,[4]; 200 mg/kg s.c. daily for six days,72.9 (2.6) %
same,Inhibition of excretion of radiolabeled tetracycline / spontaneous bone resorption (in words),[4]; [7],decreased spontaneous bone resorption
same,Inhibition of excretion of radiolabeled tetracycline / spontaneous bone resorption (in words),[4]; listed as compound I,dose-dependently inhibited
same,"Inhibition of PTH-stimulated resorption, 100 (PTH - x)/PTH","[5]; 1 μmol/l, PTH 10 nM, three days culture",No inhibiton
same,"Inhibition of PTH-stimulated resorption, 100 (PTH - x)/PTH","[5]; 10 μmol/l, PTH 10 nM, three days culture",No inhibition
same,"Inhibition of PTH-stimulated resorption, 100 (PTH - x)/PTH","[5]; 100 μmol/l, PTH 10 nM, three days culture",No inhibition
same,inhibition at 1000 µM,"[5]; Mus musculus, 72 h, 1000 μmol/l, PTH 10 nM, three days culture, (SE), read-out: Inhibition of PTH-stimulated resorption, 100 (PTH - x)/PTH",12.9%
same,"Inhibition of bone resorption in vitro, mice calvaria (in words)",[5],"no inhibition of resorption in vitro was shown except at very high, unphysiological concentrations"
same,"Inhibition of bone resorption in vitro, mice calvaria (in words)",[5]; [7],No effect
same,Urinary excretion 0-24 h as parent compound,"[6]; i.v., 114 mg/kg",13.6 % of dose
same,Urinary excretion as a parent compound during 24 hours (in words),"[6]; intravenous dose, rats",Minor amounts
same,Absorption of the oral dose (in words),"[6]; oral, rats",About half
same,Urinary excretion 0-24 h as parent compound,"[6]; p.o., 114 mg/kg",7.8 % of dose
same,bioavailability at 24 h,"[6]; rat, po, p.o. vs i.v., 114 mg/kg, urine 0-24 h, read-out: Bioavailability F from urinary excretion",58%
same,dose excreted at 24 h,"[6]; rat, iv, 114 mg/kg, i.v.",14%
same,dose excreted at 24 h,"[6]; rat, po, 114 mg/kg, p.o.",< 10%
